Experimental data reported in patent publication US20050181473A1, “Bacterial adpglucose pyrophospatase method for obtaining the latter and its use in the production of assay devices and in the obtention of transgenic plants and bacteria” (priority 2001, published 2005).
“Also recorded” adds a separate entry of the source.

target: bacterial AGPPase (Escherichia coli, UniProt Q93K97, L2V/N6S); assay type: biochemical; conditions: not given
Sequence (Q93K97 whole entry L2V/N6S, looked up): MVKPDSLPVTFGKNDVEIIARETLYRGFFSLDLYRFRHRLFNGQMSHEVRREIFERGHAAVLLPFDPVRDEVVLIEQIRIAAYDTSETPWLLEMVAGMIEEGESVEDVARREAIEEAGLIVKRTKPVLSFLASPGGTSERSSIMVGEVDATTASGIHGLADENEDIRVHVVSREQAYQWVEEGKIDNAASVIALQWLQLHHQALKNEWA

Row | Structure (SMILES) | inhibition of AGPPase | AGPPase activity affected by reducing and chelating agents | requirement for optimum functioning of AGPPase
1 | O=C(O)[C@H](O)COP(=O)(O)O [3-phosphoglycerate] | Inhibited | – | –
2 | Nc1ncnc2c1ncn2[C@@H]1O[C@H](COP(=O)(O)OP(=O)(O)O)[C@@H](O)[C@H]1O [ADP] | Inhibited | – | –
3 | Nc1ncnc2c1ncn2[C@@H]1O[C@H](COP(=O)(O)O)[C@@H](O)[C@H]1O [AMP] | Inhibited | – | –
4 | Nc1ncnc2c1ncn2[C@@H]1O[C@H](COP(=O)(O)OP(=O)(O)OP(=O)(O)O)[C@@H](O)[C@H]1O [ATP] | Inhibited | – | –
5 | O=C(O)CN(CCN(CC(=O)O)CC(=O)O)CC(=O)O [EDTA] | – | adversely affected | –
6 | N[C@@H](CCC(=O)O)C(=O)O [glutamate] | – | adversely affected | –
7 | O=P(O)(O)OP(=O)(O)O [inorganic pyrophosphate] | Inhibited | – | –
8 | [Mg+2] [magnesium] | – | – | requires
9 | [O]=[Mo](=[O])([O-])[O-] [molybdate] | strongly inhibited; also recorded: Inhibited strongly | – | –
10 | O=P(O)(O)O [orthophosphate] | not | – | –
11 | N[C@@H](CS)C(=O)O [reduced cysteine] | – | adversely affected | –
12 | N[C@@H](CCC(=O)N[C@@H](CS)C(=O)NCC(=O)O)C(=O)O [reduced glutathione] | – | adversely affected | –
13 | OCCS [β-mercaptoethanol] | – | adversely affected | –

same assay, conditions: 37° C., Tris-HCl 50 mM pH 7.5, 5 mM MgCl2

Row | Structure (SMILES) | hydrolysis / recognition as substrate by AGPPase
14 | Nc1ncnc2c1ncn2[C@@H]1O[C@@H]2COP(=O)(O)O[C@H]2[C@H]1O [cyclic AMP] | Nor does it hydrolyze

same assay, conditions: pH 7.5

Row | Structure (SMILES) | hydrolysis / recognition as substrate by AGPPase
15 | O=C(O)[C@H](O)COP(=O)(O)O [3-phosphoglycerate] | does not hydrolyze
16 | Nc1ncnc2c1ncn2[C@@H]1O[C@H](COP(=O)(O)OP(=O)(O)O[C@H]2O[C@H](CO)[C@@H](O)[C@H](O)[C@H]2O)[C@@H](O)[C@H]1O [ADPG, ADPglucose] | catalyzes the hydrolysis
17 | Nc1ncnc2c1ncn2[C@@H]1O[C@H](COP(=O)(O)OP(=O)(O)O[C@H]2O[C@H](CO)[C@@H](O)[C@H](O)[C@@H]2O)[C@@H](O)[C@H]1O [ADPmannose] | recognizes; also recorded: hydrolyzes
18 | Nc1ncnc2c1ncn2[C@@H]1O[C@H](COP(=O)(O)OP(=O)(O)OC[C@H]2OC(O)[C@H](O)[C@@H]2O)[C@@H](O)[C@H]1O (stereo partly drawn) [ADPribose] | recognizes; also recorded: hydrolyzes
19 | Nc1ncnc2c1ncn2[C@@H]1O[C@H](COP(=O)(O)O)[C@@H](O)[C@H]1O [AMP] | does not hydrolyze
20 | O=P(O)(O)O[C@H]1O[C@H](CO)[C@@H](O)[C@H](O)[C@H]1O [G1P, glucose-1-phosphate] | does not hydrolyze
21 | O=C[C@H](O)[C@@H](O)[C@H](O)[C@H](O)COP(=O)(O)O [G6P, glucose-6-phosphate] | does not hydrolyze
22 | Nc1nc2c(ncn2[C@@H]2O[C@H](COP(=O)(O)OP(=O)(O)O[C@H]3O[C@H](CO)[C@@H](O)[C@H](O)[C@@H]3O)[C@@H](O)[C@H]2O)c(=O)[nH]1 [GDPmannose] | does not recognize
23 | O=C(O)[C@H]1O[C@H](OP(=O)(O)OP(=O)(O)OC[C@H]2O[C@@H](n3ccc(=O)[nH]c3=O)[C@H](O)[C@@H]2O)[C@H](O)[C@@H](O)[C@@H]1O [UDPglucuronic] | does not recognize
24 | O=[N+]([O-])c1ccc(OP(=O)(O)Oc2ccc([N+](=O)[O-])cc2)cc1 [bis-paranitrophenyl-phosphate] | does not hydrolyze
